# Measurements reported in patent EP3692978A1, “NOVEL METHOD” (DSM IP Assets B.V., priority 2019, dated 2020).
# Like-named read-outs stand apart in the source and are kept apart here. Where a SMILES comes first, the peptide text is derived from it. [ ]: non-standard residue; d: D form. The star is where a group is joined. Bz = O=C(c1ccccc1)*; NPr2 = CCCN(CCC)*
# System: human hair follicles
# Type: cell-based
# Settings: hair shaft elongation after 4 days versus vehicle (DMSO) control
# Text: Microdissection of human hair follicles: Human scalp skin samples containing mainly anagen VI hair follicles were obtained from elective face-lift plastic surgery. Informed consent was obtained. Hair follicles were truncated below the dermis, while the remaining hair bulb was separated from the dermal/subcutaneous tissue and placed in appropriate culture medium. Before the experiment, each hair follicle underwent a stringent selection, that is operated by controlling the hair shaft elongation following 18 hrs of organ culture, as well as the general organ morphology. Only the hair follicles that grew at least 0.19 ± 0.02 mm/18 hrs were used for the experiment.
# Treatment: The hair growth inhibition of Bz-Gly-His-D-Phe-Arg-D-Trp-N(Pr)2 *2MSA in the concentrations as indicated in table 2 was assessed versus control, i.e. versus a treatment with the vehicle (i.e. DMSO) alone. Evaluation of hair growth inhibition: pictures of the hair follicles in culture were taken at baseline and after 4 days and the hair shaft elongation was measured to determine the hair growth. Table 2: Results
compound,measurement,setting,value
CCCN(CCC)C(=O)[C@@H](Cc1c[nH]c2ccccc12)NC(=O)[C@H](CCCNC(=N)N)NC(=O)[C@@H](Cc1ccccc1)NC(=O)[C@H](Cc1c[nH]cn1)NC(=O)CNC(=O)c1ccccc1 [Bz-Gly-His-D-Phe-Arg-D-Trp-N(Pr)2 *2MSA] (Bz-GH[dF]R[dW]-NPr2),% hair growth inhibition,"1 nM, p = 0.067 (paired t-test)",12%
same,% hair growth inhibition,"100 nM, p = 0.019 (paired t-test)",29%
